A short description of series [1]: Solubility when diluted in cell medium (in vitro assay conditions). Particulars: cell culture assay conditions.
Series [2] is described as follows: Solubility in PBS with 15% β-cyclodextrin. The series is classed as physicochemical. Particulars: 1 mM, 24 hours agitation, supernatant by HPLC; mean±SD. The method, then:
xxxxx Furthermore, an additional effort was done to reevaluate those peptidomimetics from the first generation that were not soluble in the in vitro assay conditions or formed aggregates as described above when incubated with the RPE cells.
We then put these peptidomimetics under constant agitation for 24 hours. […] Data are expressed as the mean±SD.

The subject of series [3] is pancreatic adenocarcinoma human cell lines (MPanc-96, HPAF-II, PA-TU-8902, SW1990, PA-TU 8988T, PANC-1). The series is classed as cell-based. Particulars: 24 h. The procedure:
(§1) Cells cultured in 10% FCS were treated with compound (I) in a dose range from 0 to 25 µM and incubated for 24 h, when cell viability was determined by MTS assay. Experiment was repeated 3 times. Differences were assessed using one-way ANOVA and Tukey Multiple Comparisons Test and considered significant when p≤0.05.
(§2) 10,000 cells in 50 μL of 10% FBS-containing medium, were cultured for 24 h and then treated with the drugs (50 μL final volume) for a further 24 h in each well of a 96-well plate (100 μL final volume). MTS viability assay (CellTiter 96® Aqueous One Solution Cell Proliferation Assay, Promega G3580) was performed following the manufacturer's specifications. The absorbance of each well was measured with a multimode plate reader (Spark, Tecan) at 490 nm. The percentage of cell viability was calculated by dividing the absorbance of each well by the average absorbance of the control wells (which had no significant deviation when Student's t-test was applied).
We next incubated IPR-473 at several concentrations with different cancer cell lines and a normal cell line (-hTERT-RPE cells). Cell viability was measured by a MTS cell proliferation assay. […] Cells were placed in a 96-well plate culture containing 10% FBS (Bilogical Industries)-containing medium. (10000 cell per well). These cells were then cultured for 24 hours and then treated with IPR-473 at concentrations of 10 μM, 15 μM, 20 μM and 25 μM for a further 24 hours incubation.
The different cell lines used included human pancreatic cancer cells MPANC-96, human pancreatic adenocarcinoma cells HPAF-II, human pancreatic grade II adenocarcinoma PA-TU, human pancreatic ductaladenocarcinoma SW1990, human pancreas adenocarcinoma 8988-T and human pancreatic ductal carcinoma PANC-1. Each of these comprises a pancreatic tumor cell line. The control as stated was hTERT-RPE cells and that are not cancerigenous.

The target of series [4] is T1, HA-KRASG12V with C-RAF or with PI3K (Homo sapiens, UniProt P01116, G12V).
T1 construct: expressed in transfected cells; host or cells: HeLa cells, Lipofectamine 2000, plasmid pEF-HA-KRASG12V
In words: Co-immunoprecipitation of HA-KRASG12V with C-RAF or PI3K in Hela cells. The series is classed as cell-based. As to conditions: 100 µM for 2 h, EGF 10 min, starved Hela cells expressing HA-KRASG12V. The procedure: Immunoprecipitation was performed with anti-HA antibodies and Western blot of the bound (BO) and input (IN) fractions with anti-p110αPI3K and anti-C-RAF. Experiments were repeated at least three times.
Cells were seeded in a media containing 10% FBS for 24 h and were serum starved for the next 24 h. Afterwards, they were incubated with different concentrations of the compounds for 2 h. A successive treatment for 10 min with EGF (50 ng/mL; Sigma-Aldrich) was performed in order to activate cell signaling.
HeLa cells were transfected with pEF-HA-KRASG12V plasmid, obtained as described in C. Lopez-Alcala et al. (“Identification of essential interacting elements in K-Ras/calmodulin binding and its role in K-Ras localization.”; J. Biol. Chem. 2008; April 18; 283(16):10621-31. doi: 10.1074/jbc.M706238200. Epub 2008 Jan. 8. PMID: 18182391). Lipofectamine®2000 Transfection Reagent (Invitrogen) was used as a transfection method following the manufacturer's instructions.
Cells were transfected with pEF-HA-KRASG12V plasmid for 24 h and starved for the next 24 h before treatment with the peptides and EGF. Next, an IP with anti-HA antibody crosslinked to agarose beads was performed. […]

A further series has as its system hTERT-RPE cells. It is filed as cell-based, human. Particulars: at the concentrations of the tumor cell IC50 (approximately 20 μM), 24 h, MTS. The method, then: as §1, §2
We next incubated IPR-473 at several concentrations with different cancer cell lines and a normal cell line (-hTERT-RPE cells). Cell viability was measured by a MTS cell proliferation assay. […] Cells were placed in a 96-well plate culture containing 10% FBS (Bilogical Industries)-containing medium. (10000 cell per well). […]

Square brackets hold non-standard residues; d marks the D form. Peptide text beside a SMILES is read from it. * marks the point of attachment. Chg = N[CH](C(=O)O)C1CCCCC1; X1 = C1CCC2(CC1)CCN(*)CC2; PhAc = O=C(Cc1ccccc1)*

A word on the IC50: it is the concentration that gives 50% inhibition. The low end stands for higher potency, the high end for lower potency.

Turning to `CC(C)CC(NC(=O)C(Cc1c[nH]c2ccccc12)NC(=O)C(NC(=O)C(CCCCN)NC(=O)Cc1ccccc1)C1CCCCC1)C(=O)N1CCC2(CCCCC2)CC1` (centres unmarked) [IP-14-06] (PhAc-K[Chg]WL-X1; configuration not given here), the “Solubility when diluted in cell medium” value in series [1] is “not soluble”. For the same compound, the “Conc. in PBS β-cyclodextrin 15%” value in series [2] is 844 ± 4 µM.
In series [3], `CC(C)C[C@H](NC(=O)[C@H](CN)N(C)C(=O)CCN(C)C(=O)[C@H](Cc1ccc(-c2ccccc2)cc1)NC(=O)C(c1ccccc1)c1ccccc1)C(=O)N1CCCC1` [compound of formula (I), (S)-N-(3-(((S)-3-amino-1-((S)-4-methyl-1-oxo-1-(pyrrolidin-1-yl)pentan-2-ylamino)-1-oxopropan-2-yl)(methyl)amino)-3-oxopropyl)-3-(biphenyl-4-yl)-2-(2,2-diphenylacetamido)-N-methylpropanamide] came in with an IC50 of about 20 µM. In addition, in series [4], the “PI3K and c-RAF1 interaction with KRAS (co-immunoprecipitation)” value is “reduced PI3K and c-RAF1 interaction with KRAS”. Also, the normal cells affected result in the series with hTERT-RPE cells is listed as “less than 5%”.
